Data taken from US4455292A, “Radiological contrast composition and methods” (Board of Regents, the University of Texas System, priority 1982, dated 1984).

What was measured:
human brain hexokinase [1] = biological target: T1, human brain hexokinase (Homo sapiens, UniProt P19367); conditions: read-out: Km for glucose utilization by brain hexokinase, Michaelis constant; cited from earlier work
T1 sequence (P19367 1-917): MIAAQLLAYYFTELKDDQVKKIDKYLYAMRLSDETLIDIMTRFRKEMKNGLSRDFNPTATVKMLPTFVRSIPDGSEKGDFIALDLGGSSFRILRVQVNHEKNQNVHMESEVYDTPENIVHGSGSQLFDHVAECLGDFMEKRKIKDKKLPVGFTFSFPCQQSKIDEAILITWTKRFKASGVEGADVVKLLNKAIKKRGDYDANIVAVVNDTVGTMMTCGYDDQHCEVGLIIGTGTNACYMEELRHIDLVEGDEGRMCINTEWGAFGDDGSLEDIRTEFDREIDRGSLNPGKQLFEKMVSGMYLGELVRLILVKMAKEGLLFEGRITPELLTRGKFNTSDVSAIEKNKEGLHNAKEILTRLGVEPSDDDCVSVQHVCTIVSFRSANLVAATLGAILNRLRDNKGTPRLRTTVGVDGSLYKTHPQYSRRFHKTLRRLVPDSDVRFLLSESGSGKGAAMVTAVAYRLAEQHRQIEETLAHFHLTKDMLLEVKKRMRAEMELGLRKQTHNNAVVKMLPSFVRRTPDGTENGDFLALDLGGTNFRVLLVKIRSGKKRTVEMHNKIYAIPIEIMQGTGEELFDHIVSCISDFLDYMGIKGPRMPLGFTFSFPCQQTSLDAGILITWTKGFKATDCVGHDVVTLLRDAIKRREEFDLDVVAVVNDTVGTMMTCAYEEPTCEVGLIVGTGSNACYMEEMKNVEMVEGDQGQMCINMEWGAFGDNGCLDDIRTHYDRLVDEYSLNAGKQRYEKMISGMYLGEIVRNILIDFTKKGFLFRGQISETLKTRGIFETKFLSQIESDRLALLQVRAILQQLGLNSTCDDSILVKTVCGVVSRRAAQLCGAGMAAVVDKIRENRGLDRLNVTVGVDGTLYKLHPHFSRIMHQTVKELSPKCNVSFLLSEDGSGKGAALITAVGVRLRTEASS

Rat Brain Hexokinase = experiment: Competitive inhibition of rat brain hexokinase; type: biochemical; conditions: J. Neurochemistry 37: 1000 (1981)
Source text: Rather than relying on indirect manipulative steps to avoid contrast agent diffusion to brain, there is a need for an inexpensive, reliable, direct mechanism to avoid central nervous system complications induced by the iodo-benzamido-glucopyranose x-ray contrast agents. Following intense pharmacological research into the biochemical activity of the contrast agents, typified by metrizamide, Applicant has discovered that such compounds interfere with glycolysis metabolism in the brain. […] This interference with the utilization of glucose, which normally serves as the obligatory energy source in the brain, may explain some of the depressive effects of intrathecally administered metrizamide and related compounds.

patients = conditions: cerebrospinal myelography patients; cited from earlier work
[2] = reconstituted according to certain directions, at body temperature; cited from earlier work
human brain hexokinase [3] = biological target: T1, human brain hexokinase; experiment: Inhibition constant for human brain hexokinase; type: biochemical; set-up: from tissue; host or cells: human brain; conditions: with respect to human brain hexokinase; competitive with glucose
Source text: (§1) The appropriate amount of glucose to be combined with or to be coadministered with a selected iodo-benzamido-glucopyranose contrast agent can be determined by knowing the hexokinase inhibition constant (Ki) for a selected contrast agent. The ratio of the activity of an enzyme to its maximal activity (Vmax) in the presence of competitive inhibitors is given by the following formula: v/Vmax=[S]/([S]+Km(1+([I]/Ki)), where [S] is glucose concentration, [I] is inhibitor concentration, Km is the Michaelis constant for glucose utilization of hexokinase, and Ki is the inhibition constant for the contrast agent. With no inhibitor present, glucose utilization by human brain hexokinase is represented by a v/Vmax of 0.99 (the Km for glucose utilization by brain hexokinase is 0.05 mM, and typical spinal fluid contains 4 mM glucose).
In a routine myelographic procedure, 780 mM (300 mg I/ml) metrizamide is administered. Substituting this variable into the above Michaelis-Menten equation, one finds a v/Vmax of only 0.25. This value represents a significant reduction in glucose utilization. Even if the concentration of metrizamide were diluted tenfold by the time it reached the cerebral surfaces, a v/Vmax of only 0.77 is predicted. Reductions in glucose utilization ranging from 0.6 to 0.7 have been associated with varieties of stupor and coma in humans.

human brain hexokinase [4] = biological target: T1, human brain hexokinase; experiment: Calculated glucose utilization by brain hexokinase (v/Vmax, Michaelis-Menten equation with competitive inhibitor); set-up: from tissue; host or cells: human brain
Source text: as §1
In a routine myelographic procedure, 780 mM (300 mg I/ml) metrizamide is administered. Substituting this variable into the above Michaelis-Menten equation, one finds a v/Vmax of only 0.25. […]
However because metrizamide is a relatively weak competitive inhibitor of glucose, a small increase in glucose concentration can restore hexokinase-glucose utilization to an effective level. […] By solving for [S] it is calculated that an initial concentration of about 100 mM glucose is needed to counteract the effects of an intrathecal injection of 780 mM metrizamide. […]

Row | Structure (SMILES) | Km (human brain hexokinase [1]) | mode of hexokinase inhibition (Rat Brain Hexokinase) | fraction of patients treated with temporary confusional state and EEG deterioration (patients) | specific gravity [2] | Ki (human brain hexokinase [3]) | v/Vmax (glucose utilization) (human brain hexokinase [4]; 780 mM (300 mg I/ml) metrizamide, routine myelographic procedure, typical spinal fluid 4 mM glucose) | v/Vmax (glucose utilization) (human brain hexokinase [4]; metrizamide concentration diluted tenfold by the time it reaches the cerebral surfaces)
1 | OC[C@H]1OC(O)[C@H](O)[C@@H](O)[C@@H]1O (stereo partly shown) [glucose] | 50 µM | – | – | – | – | – | –
2 | CC(=O)Nc1c(I)c(C(=O)N[C@H]2C(O)O[C@H](CO)[C@@H](O)[C@@H]2O)c(I)c(N(C)C(C)=O)c1I (stereo partly drawn) [metrizamide, 2-[3-Acetamido-2,4,6-triiodo-5-(N-methylacetamido)benzamido]-2-deoxy-D-glucopyranose] | – | competes with glucose to inhibit hexokinase activity | about one-third | 1.184 | 2.5 mM | 0.25 | 0.77
